Laboratory results: the supplement of paper PMC10307832

Legend:
Assay in all cases: relative viability (nuclei count vs DMSO), 5 days (fraction); higher = more cells survive
NCI-H520 = test system: NCI-H520
Procedure, shortened: (§1)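 Lung cancer cell lines in 1536-well plates were dosed by pin tool the day after seeding, either with one drug alone or with a fixed anchor-drug dose plus five library-drug doses (not always all listed) in √10 steps. After 5 days, cells were fixed and their nuclei stained in one step (final 0.05% Triton X-100, 1% formaldehyde, 1 ug/ml Hoechst), then counted on 4× images. Relative viability is the nuclei count in treated wells divided by that in vehicle wells. Values are medians of duplicate plates.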

NCI-H650 = test system: NCI-H650
Procedure, shortened: as §1

EKVX = test system: EKVX
Procedure, shortened: as §1

NCI-H1650 = test system: NCI-H1650
Procedure, shortened: as §1

NCI-H460 = test system: NCI-H460
Procedure, shortened: as §1

NCI-H441 = test system: NCI-H441
Procedure, shortened: as §1

LK-2 = test system: LK-2
Procedure, shortened: as §1

NCI-H2347 = test system: NCI-H2347
Procedure, shortened: as §1

NCI-H1666 = test system: NCI-H1666
Procedure, shortened: as §1

NCI-H838 = test system: NCI-H838
Procedure, shortened: as §1

H3255 = test system: H3255
Procedure, shortened: as §1

ChaGo-K-1 = test system: ChaGo-K-1
Procedure, shortened: as §1

NCI-H3122 = test system: NCI-H3122
Procedure, shortened: as §1

SW 1573 = test system: SW 1573
Procedure, shortened: as §1

A-427 = test system: A-427
Procedure, shortened: as §1

NCI-H1944 = test system: NCI-H1944
Procedure, shortened: as §1

NCI-H2228 = test system: NCI-H2228
Procedure, shortened: as §1

NCI-H1755 = test system: NCI-H1755
Procedure, shortened: as §1

NCI-H1355 = test system: NCI-H1355
Procedure, shortened: as §1

NCI-H2085 = test system: NCI-H2085
Procedure, shortened: as §1

NCI-H322M = test system: NCI-H322M
Procedure, shortened: as §1

NCI-H596 = test system: NCI-H596
Procedure, shortened: as §1

NCI-H358 = test system: NCI-H358
Procedure, shortened: as §1

`O=C(O)CCCCC(CCSCc1ccccc1)SCc1ccccc1` (centres undefined) [CPI-613] + CCNC(=O)c1noc(-c2cc(C(C)C)c(O)cc2O)c1-c1ccc(CN2CCOCC2)cc1 [Luminespib] (partner 0.01 µM) showed a relative viability (NCI-H520; first compound 5 µM) of 0.196, a relative viability (NCI-H520; first compound 15.81 µM) of 0.204 and a relative viability (NCI-H520; first compound 50 µM) of 0.214. The relative viability (NCI-H520; first compound 158.11 µM) was 0.197, the relative viability (NCI-H520; first compound 500 µM) was 0.181 and the relative viability (NCI-H650; first compound 5 µM) was 0.811. For the same molecule, the relative viability (NCI-H650; first compound 15.81 µM) was 0.732, the relative viability (NCI-H650; first compound 50 µM) was 0.852 and the relative viability (NCI-H650; first compound 158.11 µM) was 0.69. The relative viability (NCI-H650; first compound 500 µM) was 0.613, the relative viability (EKVX; first compound 5 µM) was 0.834 and the relative viability (EKVX; first compound 15.81 µM) was 0.881. It also gave a relative viability (EKVX; first compound 50 µM) of 0.864, a relative viability (EKVX; first compound 158.11 µM) of 0.814 and a relative viability (EKVX; first compound 500 µM) of 0.803. It also gave a relative viability (NCI-H1650; first compound 5 µM) of 0.213, a relative viability (NCI-H1650; first compound 15.81 µM) of 0.224 and a relative viability (NCI-H1650; first compound 50 µM) of 0.194. It also gave a relative viability (NCI-H1650; first compound 158.11 µM) of 0.168, a relative viability (NCI-H1650; first compound 500 µM) of 0.0166 and a relative viability (NCI-H460; first compound 5 µM) of 0.0325. For the same molecule, the relative viability (NCI-H460; first compound 15.81 µM) was 0.0279, the relative viability (NCI-H460; first compound 50 µM) was 0.0372 and the relative viability (NCI-H460; first compound 158.11 µM) was 0.0145. The relative viability (NCI-H460; first compound 500 µM) was 0.0162, the relative viability (NCI-H441; first compound 5 µM) was 0.36 and the relative viability (NCI-H441; first compound 15.81 µM) was 0.38. The relative viability (NCI-H441; first compound 50 µM) was 0.289, the relative viability (NCI-H441; first compound 158.11 µM) was 0.124 and the relative viability (NCI-H441; first compound 500 µM) was 0.0495. It also gave a relative viability (LK-2; first compound 5 µM) of 0.19, a relative viability (LK-2; first compound 15.81 µM) of 0.198 and a relative viability (LK-2; first compound 50 µM) of 0.189. For the same molecule, the relative viability (LK-2; first compound 158.11 µM) was 0.153, the relative viability (LK-2; first compound 500 µM) was 0.172 and the relative viability (NCI-H2347; first compound 5 µM) was 0.279. It also gave a relative viability (NCI-H2347; first compound 15.81 µM) of 0.344, a relative viability (NCI-H2347; first compound 50 µM) of 0.746 and a relative viability (NCI-H2347; first compound 158.11 µM) of 0.548. It also gave a relative viability (NCI-H2347; first compound 500 µM) of 0.833, a relative viability (NCI-H1666; first compound 5 µM) of 0.992 and a relative viability (NCI-H1666; first compound 15.81 µM) of 1.01. It also gave a relative viability (NCI-H1666; first compound 50 µM) of 1.12, a relative viability (NCI-H1666; first compound 158.11 µM) of 0.223 and a relative viability (NCI-H1666; first compound 500 µM) of 0.131. For the same molecule, the relative viability (NCI-H838; first compound 5 µM) was 0.249, the relative viability (NCI-H838; first compound 15.81 µM) was 0.243 and the relative viability (NCI-H838; first compound 50 µM) was 0.24. For the same molecule, the relative viability (NCI-H838; first compound 158.11 µM) was 0.122, the relative viability (NCI-H838; first compound 500 µM) was 0.0891 and the relative viability (H3255; first compound 5 µM) was 0.822. The relative viability (H3255; first compound 15.81 µM) was 0.802, the relative viability (H3255; first compound 50 µM) was 0.879 and the relative viability (H3255; first compound 500 µM) was 0.878. It also gave a relative viability (ChaGo-K-1; first compound 5 µM) of 0.533, a relative viability (ChaGo-K-1; first compound 15.81 µM) of 0.61 and a relative viability (ChaGo-K-1; first compound 50 µM) of 0.596. It also gave a relative viability (ChaGo-K-1; first compound 158.11 µM) of 0.204, a relative viability (ChaGo-K-1; first compound 500 µM) of 0.11 and a relative viability (NCI-H3122; first compound 5 µM) of 0.0787. For the same molecule, the relative viability (NCI-H3122; first compound 15.81 µM) was 0.088, the relative viability (NCI-H3122; first compound 50 µM) was 0.0889 and the relative viability (NCI-H3122; first compound 158.11 µM) was 0.0798. For the same molecule, the relative viability (NCI-H3122; first compound 500 µM) was 0.0712, the relative viability (SW 1573; first compound 5 µM) was 0.254 and the relative viability (SW 1573; first compound 15.81 µM) was 0.295. It also gave a relative viability (SW 1573; first compound 50 µM) of 0.138, a relative viability (SW 1573; first compound 158.11 µM) of 0.0967 and a relative viability (SW 1573; first compound 500 µM) of 0.0725. For the same molecule, the relative viability (A-427; first compound 5 µM) was 0.85, the relative viability (A-427; first compound 15.81 µM) was 0.938 and the relative viability (A-427; first compound 50 µM) was 0.761. For the same molecule, the relative viability (A-427; first compound 158.11 µM) was 0.512, the relative viability (A-427; first compound 500 µM) was 0.126 and the relative viability (NCI-H1944; first compound 5 µM) was 0.748. For the same molecule, the relative viability (NCI-H1944; first compound 15.81 µM) was 0.701, the relative viability (NCI-H1944; first compound 50 µM) was 0.757 and the relative viability (NCI-H1944; first compound 158.11 µM) was 0.409. For the same molecule, the relative viability (NCI-H1944; first compound 500 µM) was 0.0599, the relative viability (NCI-H2228; first compound 5 µM) was 0.145 and the relative viability (NCI-H2228; first compound 15.81 µM) was 0.205. It also gave a relative viability (NCI-H2228; first compound 50 µM) of 0.137, a relative viability (NCI-H2228; first compound 158.11 µM) of 0.141 and a relative viability (NCI-H2228; first compound 500 µM) of 0.0612. It also gave a relative viability (NCI-H1755; first compound 5 µM) of 0.613, a relative viability (NCI-H1755; first compound 15.81 µM) of 0.508 and a relative viability (NCI-H1755; first compound 50 µM) of 0.24. The relative viability (NCI-H1755; first compound 158.11 µM) was 0.34, the relative viability (NCI-H1755; first compound 500 µM) was 0.185 and the relative viability (NCI-H1355; first compound 5 µM) was 0.692. The relative viability (NCI-H1355; first compound 15.81 µM) was 0.701, the relative viability (NCI-H1355; first compound 50 µM) was 0.691 and the relative viability (NCI-H1355; first compound 158.11 µM) was 0.25. It also gave a relative viability (NCI-H1355; first compound 500 µM) of 0.35, a relative viability (NCI-H2085; first compound 5 µM) of 0.43 and a relative viability (NCI-H2085; first compound 15.81 µM) of 0.371. It also gave a relative viability (NCI-H2085; first compound 50 µM) of 0.406, a relative viability (NCI-H2085; first compound 158.11 µM) of 0.177 and a relative viability (NCI-H2085; first compound 500 µM) of 0.118. For the same molecule, the relative viability (NCI-H322M; first compound 5 µM) was 0.777, the relative viability (NCI-H322M; first compound 15.81 µM) was 0.781 and the relative viability (NCI-H322M; first compound 50 µM) was 0.826. The relative viability (NCI-H322M; first compound 158.11 µM) was 0.53, the relative viability (NCI-H322M; first compound 500 µM) was 0.0612 and the relative viability (NCI-H596; first compound 5 µM) was 0.954. For the same molecule, the relative viability (NCI-H596; first compound 15.81 µM) was 0.955, the relative viability (NCI-H596; first compound 50 µM) was 1.12 and the relative viability (NCI-H596; first compound 158.11 µM) was 0.168. It also gave a relative viability (NCI-H596; first compound 500 µM) of 0.0176, a relative viability (NCI-H358; first compound 5 µM) of 0.287 and a relative viability (NCI-H358; first compound 15.81 µM) of 0.249. It also gave a relative viability (NCI-H358; first compound 50 µM) of 0.356, a relative viability (NCI-H358; first compound 158.11 µM) of 0.414 and a relative viability (NCI-H358; first compound 500 µM) of 0.408.
